Source: patent publication US20130052646A1, “POSITIVE AND NEGATIVE […] FOR USE IN TH[…]” (Mascoma Corporation, priority 2009, published 2013)

Columns and labels:
Assay type in all cases: cell-based, Clostridium thermocellum
C. thermocellum [1] = assay: Plating on media containing 5-FOA (pyrF negative selection); details: for colony survival after plating on 5-FOA: rich media containing 500 μg of 5-FOA; for growth on media containing 5-FOA: FIG. 8
Description: Plasmid pMU482 was transformed into the wild type C. thermocellum strain 1313 and selected on a rich media containing thyamphenicol (at the concentration of 6 μg/ml) to select for cells containing the cat marker encoded on the plasmid. A schematic displaying the creation of the knockout vector is depicted in FIG. 2. Several colonies that resulted from the selection scheme were selected for PCR analysis to confirm that the plasmid had been transformed into the cells. A transformed colony was diluted into liquid, rich medium containing thyamphenicol at the concentration of 6 μg/ml and grown overnight. A culture containing pMU102 (control plasmid) was also grown similarly. The next day, each culture was serially diluted by ten fold (up to 10^−3) using fresh, rich media and 100 μL of the undiluted culture. Each of the dilutions were plated on rich media containing 500 μg of 5-FOA. A schematic of this plating strategy is depicted in FIG. 3.
The plasmid-free C. thermocellum ΔpyrF strain created above was tested to confirm that negative selection could be appropriately applied. Cells were grown and plated using media containing the toxic analog 5-fluoroorotic acid (5-FOA). The protein product of the pyrF gene converts 5-FOA into a toxic compound. Thus, the C. thermocellum ΔpyrF strain should be resistant to 5-FOA, but the wild type or a complemented strain should be susceptible to 5-FOA and unable to grow.

C. thermocellum [2] = assay: Plating on 8-azahypoxanthine (hpt negative selection, complementation); details: 500 ug/ml 8-AzaH, FIG. 26
Description: Plasmid pMU1657 was transformed into the wild type C. thermocellum strain 1313 and selected for on chloramphenicol. Several colonies were selected and the transformed plasmid was verified by PCR. A colony was diluted into C. thermocellum growth medium and grown overnight. The following morning the dilution closest to an O.D of ˜1.0 was serially diluted and plated on defined medium containing 500 ug/ml 8-azahypoxanthine. Two days later, colonies were observed on the dilution representing 10^−3. Six colonies were selected and PCR screens were performed to verify that the hpt gene had been deleted from the chromosome. After PCR amplification, the expected size of the wild type product having no deletion is 3380 bp and the expected size of the hpt deletion is 2820 bp. […] The colonies were subsequently screened by PCR amplification to confirm that the plasmid had been cured (or lost). In FIG. 25, lane (P) represents the plasmid control that is 3750 bp in size. Colonies that have lost the plasmid would have no product migrating in the lane. The lack of product in lanes 1-6 representing the six different colonies confirm that the plasmid had been cured.
To provide stronger support for this conclusion, the knockout plasmid was reintroduced to look for complementation of the phenotype. […]

C. thermocellum [3] = assay: Plating in the presence of FUDR (tdk negative selection); details: FIG. 18
Description: To this end, the C. thermocellum pyrF::tdk strain and the control C. thermocellum ΔpyrF strain were plated in the presence of 10 μg/ml FUDR. For each culture, a 10 dilution was used for the plating.

C. thermocellum [4] = assay: Plating of cured Δhpt strain on thiamphenicol; details: plasmid-cured Δhpt strain; after 5 days
Description: To verify this, the new strain was grown up overnight and plated on thiamphenicol.

C. thermocellum [5] = assay: Growth in rich medium with uracil supplementation; details: ΔpyrF strain; rich medium with additional 40 μg/ml uracil; 55° C.
Description: Growth rate measurements were performed in a 200 μl volume in a 96-well plate at 55° C. The optical density at 600 nm was read by a Powerwave XS platereader customized by the manufacturer to incubate up to 68° C. (BioTek). The plates were shaken continuously and read at three minute intervals. Each sample was measured in quadruplicate. The specific growth rate (0 was determined by measuring the slope of the natural log-transformed OD readings. A two hour sliding window of OD readings between 0.08 and 1.00 were used for determination of maximum rate μmax. In all cases, the R-squared value was greater than 0.99.
The growth of the pta::gapDHp-cat strain was compared to the wt and ΔpyrF strains in rich medium, with and without uracil supplementation. […] End product analysis was performed on batch fermentations started at pH 7.0 with 5 g/l cellobiose as the primary carbon source under anaerobic conditions with a nitrogen atmosphere and 80 ml working volume. After 48 hours of fermentation the wt and ΔpyrF strain produced about 1 g/l of acetic acid whereas the acetic acid production of the pta::gapDHp-cat was indistinguishable from background levels (average 0.03 g/l).

## O=C(O)c1[nH]c(=O)[nH]c(=O)c1F [5-FOA, 5-fluoroorotic acid]
C. thermocellum [1]; colonies containing wild-type pyrF
  colony survival after plating on 5-FOA: did not survive
C. thermocellum [1]; colonies that contained the pyrF disruption
  colony survival after plating on 5-FOA: visible
C. thermocellum [1]; plasmid-free ΔpyrF strain (also with control plasmid pMU102)
  growth on media containing 5-FOA: able to grow
C. thermocellum [1]; ΔpyrF strain transformed with complementing plasmid pMU612 expressing pyrF
  growth on media containing 5-FOA: no growth

## O=c1[nH]cnc2nn[nH]c12 [8-azahypoxanthine]
C. thermocellum [2]; Δhpt strain containing complementing plasmid pMU1657
  sensitivity to 8-azahypoxanthine: sensitivity comparable to wild type levels
C. thermocellum [2]; Δhpt strain
  sensitivity to 8-azahypoxanthine: completely insensitive

## O=c1[nH]c(=O)n([C@H]2C[C@H](O)[C@@H](CO)O2)cc1F [FUDR, fluorodeoxyuridine]
C. thermocellum [3]; control ΔpyrF strain without tdk, 10 μg/ml FUDR
  growth in the presence of FUDR: survived
C. thermocellum [3]; pyrF::tdk strain, 10 μg/ml FUDR with addition of thymidine
  growth in the presence of FUDR: did grow
C. thermocellum [3]; pyrF::tdk strain, 10 μg/ml FUDR
  growth in the presence of FUDR: did not grow

## CS(=O)(=O)c1ccc([C@@H](O)[C@@H](CO)NC(=O)C(Cl)Cl)cc1 [thiamphenicol]
C. thermocellum [4]
  resistant colonies on thiamphenicol: no thiamphenicol resistant colonies were observed

## O=c1cc[nH]c(=O)[nH]1 [uracil]
C. thermocellum [5]
  effect of uracil supplementation on growth: eliminated the growth defect
